Data: ChEMBL document CHEMBL4190183 (Medchemcomm, 2016)
The source made the active and inactive calls. The rule behind the calls is not given here.

Tests used:
[1] = Retention time of the compound by LC-MS/MS analysis; type: physicochemical
HCT-116 = assay: Cytotoxicity against human HCT116 cells assessed as cell death at 10 uM after 48 hrs by MTT assay relative to control; type: functional
DLD-1 = assay: Cytotoxicity against human DLD1 cells assessed as cell death at 10 uM after 48 hrs by MTT assay relative to control; type: functional
A549 = assay: Cytotoxicity against human A549 cells assessed as cell death at 10 uM after 48 hrs by MTT assay relative to control; type: functional
MDA-MB-231 = assay: Cytotoxicity against human MDA-MB-231 cells assessed as cell death at 10 uM after 48 hrs by MTT assay relative to control; type: functional
DNA ligase 1 [2] = target: T1, DNA ligase 1 (Homo sapiens, UniProt P18858); assay: Residual activity of human DNA ligase 1 expressed in Escherichia coli BL21(DE3)RP cells assessed as DNA ligation at 100 uM using fluorescently labelled ds nicked DNA as substrate after 30 mins by urea gel based imaging method relative to control
HepG2 [3] = assay: Cytotoxicity against human HepG2 cells assessed as cell death at 10 uM after 48 hrs by MTT assay relative to control; type: functional
DNA ligase 1 [4] = target: T1, DNA ligase 1; assay: Inhibition of human DNA ligase 1 expressed in Escherichia coli BL21(DE3)RP cells assessed as reduction in fluorescently labelled ds nicked DNA substrate ligation at 100 uM after 30 mins by urea gel based imaging method relative to control
HEK293 = assay: Cytotoxicity against HEK293 cells assessed as cell death at 10 uM after 48 hrs by MTT assay relative to control; type: cell-based; conditions: human, hek293, 48 h
HepG2 [5] = assay: Induction of cell death in human HepG2 cells at 0.625 uM after 48 hrs by MTT assay; type: functional, cell-based

T1 sequence (P18858 whole entry): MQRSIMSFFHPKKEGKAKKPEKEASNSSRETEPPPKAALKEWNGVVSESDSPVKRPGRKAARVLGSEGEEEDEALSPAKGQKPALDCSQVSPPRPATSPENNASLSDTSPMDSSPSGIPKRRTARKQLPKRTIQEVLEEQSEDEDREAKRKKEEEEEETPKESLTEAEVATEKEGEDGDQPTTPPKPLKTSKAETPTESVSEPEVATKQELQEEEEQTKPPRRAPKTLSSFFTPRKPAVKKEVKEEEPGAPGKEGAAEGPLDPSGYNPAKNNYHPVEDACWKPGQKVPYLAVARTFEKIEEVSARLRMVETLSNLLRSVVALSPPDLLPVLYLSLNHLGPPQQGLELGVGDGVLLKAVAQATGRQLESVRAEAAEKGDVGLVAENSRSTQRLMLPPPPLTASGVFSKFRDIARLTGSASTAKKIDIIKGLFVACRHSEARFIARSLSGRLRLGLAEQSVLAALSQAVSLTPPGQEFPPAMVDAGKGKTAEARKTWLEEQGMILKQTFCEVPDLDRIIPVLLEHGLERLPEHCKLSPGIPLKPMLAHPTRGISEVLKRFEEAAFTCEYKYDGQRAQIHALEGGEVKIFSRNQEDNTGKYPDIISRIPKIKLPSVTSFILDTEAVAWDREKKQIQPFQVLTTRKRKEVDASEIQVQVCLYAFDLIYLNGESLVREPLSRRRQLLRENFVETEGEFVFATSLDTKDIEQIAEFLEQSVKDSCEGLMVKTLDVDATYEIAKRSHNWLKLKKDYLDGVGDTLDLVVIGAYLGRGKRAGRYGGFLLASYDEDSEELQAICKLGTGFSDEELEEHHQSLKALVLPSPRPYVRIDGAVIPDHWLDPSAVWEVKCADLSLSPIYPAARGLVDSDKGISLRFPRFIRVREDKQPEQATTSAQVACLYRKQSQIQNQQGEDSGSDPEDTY

Molecule `OC(Cn1cncn1)(Cn1cncn1)c1ccc(F)cc1F` [FLUCONAZOLE] has a Retention_time [1] of 2.08 min.
With `CCOC(=O)C1=C(C)NC(=S)NC1c1cc(/C=N/NC(=S)Nc2ccc(C)cc2)c(O)c(C(C)(C)C)c1` (stereo unspecified) the Activity (HCT-116) was 50.5%, the Activity (DLD-1) was 45.7% and the Activity (A549) was 9.3%. For the same molecule, the Activity (MDA-MB-231) was 3.3%, the ligation (DNA ligase 1 [2]) was 31.1% and the Activity (HepG2 [3]) was 23.5%. For the same molecule, the inhibition (DNA ligase 1 [4]) was 68.9% and the Activity (HEK293) was 40.2%.
`CCOC(=O)C1=C(C)NC(=O)NC1c1cc(C)c(O)c(/C=N/NC(=S)NC)c1` (stereo unspecified) showed an Activity (HCT-116) of 17.7%, an Activity (DLD-1) of 18.1% and an Activity (A549) of 14%. The Activity (MDA-MB-231) was 31%, the ligation (DNA ligase 1 [2]) was 19.6% and the Activity (HepG2 [3]) was 33.1%. It also gave an inhibition (DNA ligase 1 [4]) of 80.4% and an Activity (HEK293) of 22.7%.
In the case of `CCOC(=O)C1=C(C)NC(=O)NC1c1cc(/C=N/NC(=S)NC)c(O)c(C(C)(C)C)c1` (stereo unspecified), the Activity (HCT-116) was 22.5%, the Activity (DLD-1) was 34.1% and the Activity (A549) was 27.3%. It also gave an Activity (MDA-MB-231) of 29.7%, a ligation (DNA ligase 1 [2]) of 19.2% and an Activity (HepG2 [3]) of 23.7%. The inhibition (DNA ligase 1 [4]) was 80.8% and the Activity (HEK293) was 24.6%.
With `CCOC(=O)C1=C(C)NC(=S)NC1c1cc(/C=N/NC(=O)Nc2ccccc2)c(O)c(C(C)(C)C)c1` (stereo unspecified) the Activity (HCT-116) was 17.9%, the Activity (DLD-1) was 17.6% and the Activity (A549) was 26.8%. It also gave an Activity (MDA-MB-231) of 7%, a ligation (DNA ligase 1 [2]) of 19.1% and an Activity (HepG2 [3]) of 26%. The inhibition (DNA ligase 1 [4]) was 80.9% and the Activity (HEK293) was 53.3%.
With `CCOC(=O)C1=C(C)NC(=S)NC1c1cc(/C=N/NC(=S)Nc2ccc(Cl)cc2)c(O)c(C(C)(C)C)c1` (stereo unspecified) the Activity (HCT-116) was 57.8%, the Activity (DLD-1) was 15.5% and the Activity (A549) was 24.5%. For the same molecule, the Activity (MDA-MB-231) was 17.3%, the ligation (DNA ligase 1 [2]) was 20.6% and the Activity (HepG2 [3]) was 28.9%. For the same molecule, the inhibition (DNA ligase 1 [4]) was 79.4% and the Activity (HEK293) was 52.7%.
With `CCOC(=O)C1=C(C)NC(=S)NC1c1cc(/C=N/NC(=O)Nc2ccc(Cl)cc2)c(O)c(C(C)(C)C)c1` (stereo unspecified) the Activity (HCT-116) was 63.3%, the Activity (DLD-1) was 17.1% and the Activity (A549) was 54%. The Activity (MDA-MB-231) was 13.8%, the ligation (DNA ligase 1 [2]) was 22.9% and the Activity (HepG2 [3]) was 81.3%. It also gave an inhibition (DNA ligase 1 [4]) of 77.1% and an Activity (HEK293) of 65.7%.
In the case of `CCOC(=O)C1=C(C)NC(=S)NC1c1cc(/C=N/NC(=S)Nc2ccccc2)c(O)c(C(C)(C)C)c1` (stereo unspecified), the Activity (HCT-116) was 49.9%, the Activity (DLD-1) was 67.6% and the Activity (A549) was 29.6%. For the same molecule, the Activity (MDA-MB-231) was 26.1%, the ligation (DNA ligase 1 [2]) was 33.2% and the Activity (HepG2 [3]) was 26.5%. It also gave an inhibition (DNA ligase 1 [4]) of 66.8% and an Activity (HEK293) of 54.1%.
In the case of `CCOC(=O)C1=C(C)NC(=O)NC1c1cc(C)c(O)c(/C=N/NC(N)=O)c1` (stereo unspecified), the Activity (HCT-116) was 4.3%, the Activity (DLD-1) was -3% and the Activity (A549) was 7%. For the same molecule, the Activity (MDA-MB-231) was 13.9%, the ligation (DNA ligase 1 [2]) was 35.7% and the Activity (HepG2 [3]) was 9.7%. It also gave an inhibition (DNA ligase 1 [4]) of 64.3% and an Activity (HEK293) of 15.7%.
With `COc1cccc2c1C(=O)c1c(O)c3c(c(O)c1C2=O)C[C@@](O)(C(=O)CO)C[C@@H]3O[C@H]1C[C@H](N)[C@H](O)[C@H](C)O1` the Activity (HepG2 [5]) was “Active”.
With `CCOC(=O)C1=C(C)NC(=O)NC1c1cc(C=O)c(O)c(C(C)(C)C)c1` (stereo unspecified) the Activity (HCT-116) was 1.8%, the Activity (DLD-1) was 8.1% and the Activity (A549) was 25.4%. The Activity (MDA-MB-231) was 20.7%, the ligation (DNA ligase 1 [2]) was 26.4% and the Activity (HepG2 [3]) was 11.4%. For the same molecule, the inhibition (DNA ligase 1 [4]) was 73.6% and the Activity (HEK293) was 10.7%.
Work on `CCOC(=O)C1=C(C)NC(=O)NC1c1cc(/C=N/NC(=O)Nc2ccc(Br)cc2)c(O)c(C(C)(C)C)c1` (stereo unspecified) yielded an Activity (HCT-116) of 57.2%, an Activity (DLD-1) of 60.2% and an Activity (A549) of 45.3%. For the same molecule, the Activity (MDA-MB-231) was 44.8%, the ligation (DNA ligase 1 [2]) was 16% and the Activity (HepG2 [3]) was 65.3%. For the same molecule, the inhibition (DNA ligase 1 [4]) was 84% and the Activity (HEK293) was 35.3%.
`CCOC(=O)C1=C(C)NC(=O)NC1c1cc(C)c(O)c(C=O)c1` (stereo unspecified) gave an Activity (HCT-116) of 5.7%, an Activity (DLD-1) of 14.7% and an Activity (A549) of 34.7%. The Activity (MDA-MB-231) was 32.5%, the ligation (DNA ligase 1 [2]) was 23.1% and the Activity (HepG2 [3]) was 18.3%. For the same molecule, the inhibition (DNA ligase 1 [4]) was 76.9% and the Activity (HEK293) was 9.2%.
For `CCOC(=O)C1=C(C)NC(=S)NC1c1cc(C)c(O)c(/C=N/NC(=O)Nc2ccc(Cl)cc2)c1` (stereo unspecified), the Activity (HCT-116) was 50.8%, the Activity (DLD-1) was 1% and the Activity (A549) was 12.8%. For the same molecule, the Activity (MDA-MB-231) was 20.2%, the ligation (DNA ligase 1 [2]) was 13.4% and the Activity (HepG2 [3]) was 22.8%. The inhibition (DNA ligase 1 [4]) was 86.7% and the Activity (HEK293) was 42.6%.
In the case of `CCOC(=O)C1=C(C)NC(=O)NC1c1cc(/C=N/NC(=O)Nc2ccc(F)cc2)c(O)c(C(C)(C)C)c1` (stereo unspecified), the Activity (HCT-116) was 17.5%, the Activity (DLD-1) was 19.1% and the Activity (A549) was 39.3%. The Activity (MDA-MB-231) was 43.7%, the ligation (DNA ligase 1 [2]) was 15.3% and the Activity (HepG2 [3]) was 37.1%. It also gave an inhibition (DNA ligase 1 [4]) of 84.7% and an Activity (HEK293) of 46.8%.
`CCOC(=O)C1=C(C)NC(=O)NC1c1cc(C)c(O)c(/C=N/NC(N)=S)c1` (stereo unspecified) showed an Activity (HCT-116) of 1.3%, an Activity (DLD-1) of 6.2% and an Activity (A549) of 4.7%. It also gave an Activity (MDA-MB-231) of 10.7%, a ligation (DNA ligase 1 [2]) of 15.9% and an Activity (HepG2 [3]) of 23.3%. For the same molecule, the inhibition (DNA ligase 1 [4]) was 84.1% and the Activity (HEK293) was 6.7%.
With `CCOC(=O)C1=C(C)NC(=O)NC1c1cc(/C=N/NC(=S)Nc2ccccc2)c(O)c(C(C)(C)C)c1` (stereo unspecified) the Activity (HCT-116) was 43.2%, the Activity (DLD-1) was 30% and the Activity (A549) was 48.7%. For the same molecule, the Activity (MDA-MB-231) was 50.4%, the ligation (DNA ligase 1 [2]) was 12% and the Activity (HepG2 [3]) was 43%. For the same molecule, the inhibition (DNA ligase 1 [4]) was 88.1% and the Activity (HEK293) was 48.3%.
`CCOC(=O)C1=C(C)NC(=O)NC1c1cc(/C=N/NC(N)=S)c(O)c(C(C)(C)C)c1` (stereo unspecified) showed an Activity (HCT-116) of 7.8%, an Activity (DLD-1) of 5.5% and an Activity (A549) of 17%. The Activity (MDA-MB-231) was 21.1%, the ligation (DNA ligase 1 [2]) was 19.6% and the Activity (HepG2 [3]) was 11.1%. It also gave an inhibition (DNA ligase 1 [4]) of 80.4% and an Activity (HEK293) of 17%.
In the case of `CCOC(=O)C1=C(C)NC(=O)NC1c1cc(/C=N/NC(N)=O)c(O)c(C(C)(C)C)c1` (stereo unspecified), the Activity (HCT-116) was 2.6%, the Activity (DLD-1) was 19.9% and the Activity (A549) was 9.1%. The Activity (MDA-MB-231) was 18.4%, the ligation (DNA ligase 1 [2]) was 22.4% and the Activity (HepG2 [3]) was 0.7%. The inhibition (DNA ligase 1 [4]) was 77.6% and the Activity (HEK293) was 14%.
`CCOC(=O)C1=C(C)NC(=O)NC1c1cc(/C=N/NC(=S)Nc2ccc(Cl)cc2)c(O)c(C(C)(C)C)c1` (stereo unspecified) gave an Activity (HCT-116) of 82.5%, an Activity (DLD-1) of 43% and an Activity (A549) of 53.3%. The Activity (MDA-MB-231) was 83.6%, the ligation (DNA ligase 1 [2]) was 19.1% and the Activity (HepG2 [3]) was 78.9%. It also gave an inhibition (DNA ligase 1 [4]) of 80.9% and an Activity (HEK293) of 53.1%.
